Marks after values point to notes of the source that are not given here.
Legend:
[1] = Bioavailability assay in rats, Experiment IV (dimethylsulfonate); format: in vivo
Source text: Experiment IV Bioavailability Assay for N-[4-(3-chloro-4-fluorophenylamino)-7-(2-methoxyethoxy)quinazolin-6-yl]-2-[1-(2-methoxyethyl)piperidin-4-ylidene]acetamide Dimethylsulfonate in Rats
12 SD rats (half of them were male and half of them were female, 7-10 weeks old, weighting 200-350 g) were purchased from Beijing Vital River Laboratory Animal Technology Co., Ltd., and reared in Animal House, GLP Center, Taiping Road No. 27 courtyard. Production License Number of Beijing Vital River Laboratory Animal Technology Co., Ltd. is SCXK (Beijing) 2009-0002.
Blood (about 0.5 ml) was drawn with glass capillary from the orbital venous plexus at […], 1 h, 2 h, 3 h, 4 h, 6 h, 8 h, 12 h, and 24 h after dosing to each group of animals according to the administration scheme, and put into a heparinized centrifuge tube. The tube was gently shaken up and down, then centrifuged at 3000 r/min for […] at 4° C. The plasma was separated. 50 μl of the plasma was pipetted into a centrifuge tube (5 ml), then 50% methanol aqueous solution (50 μl ) and thienorphine-D4 isotope (50 μl) as an internal standard were added thereto and vortexed. A solution of methanol:acetonitrile=1:3 (volume ratio) was added, vortexed for 30 s so as to mix thoroughly. The resulting mixture was centrifuged at 3000 r/min for 5 mM 500 μL of the supernatant was taken out, to which 500 μl of 20% methanol solution was added for serial dilution. The mixture was vortexed for 30 s so as to mix thoroughly. The mixture was centrifuged at 13000 r/min for 5 mM, and […], of the supernatant was injected for LC/MS/MS assay.
Liquid phase conditions: A: aqueous solution (5 mmol/L ammonium acetate, 0.2% formic acid), B: methanol; column temperature 25° C.; injection volume: 10 μL; gradient elution.
MS conditions: ion source: Turbo Ionspray (ESI+); detection mode: MRM; electrical parameters: compound 1: m/z 544.2-457.1, CE (collision energy): 36.5.
The main pharmacokinetic parameters and oral bioavailability results were calculated by using DAS2.0 (statistical moment).
The pharmacokinetic parameters of statistical moments (n=6) for a single intravenous injection of 5.0 mg/kg in rats
The pharmacokinetic parameters of statistical moments (n=6) for a single intragastric administration of 5.0 mg/kg in rats
Method for the calculation of bioavailability: F=(AUCig×Div)/(AUCiv×Dig)×100%
wherein D is dose; AUC: the area under the plasma drug concentration-time curve; ig represents intragastric administration; and iv represents intravenous injection administration.

[2] = system: HCC827 human non-small cell lung cancer xenograft; assay: HCC827 human non-small cell lung cancer xenograft model; format: in vivo, nude mice; details: for Tumor Weight (x ± S.D.) / Tumor Inhibitor Rate / Relative Tumor Volume (x ± S.D.) / T/C / Tumor Volume (x ± S.D.): HCC827 xenograft; for Tumor Inhibitor Rate: by tumor weight; for Relative Tumor Volume (x ± S.D.) / T/C / Tumor Volume (x ± S.D.): end of the assay
Method: Tumor cells were cultured in an incubator at 37° C. with 5% CO2 using MEM medium containing 10% inactivated fetal calf serum, 100 U/ml penicillin and 100 μg/ml streptomycin. The tumor cells in logarithmic growth phase were collected, adjusted to an appropriate density and injected subcutaneously into nude mice (0.2 ml per mouse). An xenograft model was established after a tumor was formed in the nude mice and passaged in vivo for more than three generations.
The above-mentioned tumor-bearing mice were sacrificed by cervical dislocation. The tumor was taken out and cut into small tumor pieces (about 2 mm×2 mm×2 mm) under sterile conditions. The small tumor pieces were inoculated subcutaneously into nude mice on the right shoulder blade with a trocar. […] The animals in each group were subjected to intragastric administration daily for 14 consecutive days. The day of grouping is assigned as day 0.
Tumor volume is calculated as: volume=0.5×long diameter×short diameter^2. The relative tumor volume (RTV) was calculated based on the measurements as: RTV=Vt/V0, wherein V0 is the tumor volume measured when the animals were grouped to be administrated (i.e., d0), and Vt is the tumor volume when each measurement was taken. Relative tumor proliferation rate T/C was calculated based on relative tumor volume, in which T is the mean value of the relative tumor volume of the treatment group, and C is the mean value of the relative tumor volume of the solvent control group. T/C was calculated as follows: T/C=TRTV/CRTV×100% (TRTV: RTV of the treatment group; CRTV: RTV of the solvent control group) Inhibition rate (%)=(mean tumor weight of the solvent control group−mean tumor weight of the treatment group)/mean tumor weight of the solvent control group x 100%. Percentage of body weight change=Wn/W0×100% (Wn: mean body weight of experimental animals in each group at day n, W0: mean body weight of experimental animals in each group at day 0).
One-Way ANOVA test was conducted in SPSS13.0, performing statistical analysis between groups.

[3] = SD rats, single intragastric administration of 5.0 mg/kg, n=6
[4] = SD rats, single intravenous injection of 5.0 mg/kg, n=6
[5] = both sexes, rat, plasma, po, SD rats, single intragastric administration of 5.0 mg/kg, n=6
[6] = both sexes, rat, plasma, SD rats, single intravenous injection of 5.0 mg/kg, n=6
[7] = HCC827 xenograft nude mice, 20, 40 and 80 mg/kg intragastric daily for 14 days
[8] = 20 mg/kg intragastric daily for 14 days
[9] = 40 mg/kg intragastric daily for 14 days
[10] = 80 mg/kg intragastric daily for 14 days

For `COCCOc1cc2ncnc(Nc3ccc(F)c(Cl)c3)c2cc1NC(=O)C=C1CCN(CCOC)CC1.CS(=O)(=O)O` [Compound 3, N-[4-(3-chloro-4-fluorophenylamino)-7-(2-methoxyethoxy)quinazolin-6-yl]-2-[1-(2-methoxyethyl)piperidin-4-ylidene]acetamide dimethylsulfonate], the “F (bioavailability)” value ([1]; SD rats, 5 mg/kg ig vs 5 mg/kg iv) was 57%, the CLz/F [1, 3] was 75.8 mL/min/kg and the t½z [1, 3] was 5.83 h. For the same compound, the CLz [1, 4] was 43.8 mL/min/kg, the t½z [1, 4] was 4.06 h and the bioavailability ([1]; both sexes, SD, rat, plasma, oral, 5 mg/kg, 5 mg/kg ig vs 5 mg/kg iv, read-out: F (bioavailability)) was 56.9%. For the same compound, the AUC(0-inf) [1, 5] was 902 ng·h/mL, the AUC(0-t) [1, 5] was 782 ng·h/mL and the Cmax [1, 5] was 75.2 ng/mL. For the same compound, the Tmax [1, 5] was 3.33 h, the Vd/F ([1]; both sexes, rat, plasma, po, SD rats, single intragastric administration of 5.0 mg/kg, n=6, read-out: Vz/F) was 36.9 L/kg and the AUC(0-inf) [1, 6] was 1460 ng·h/mL. The AUC(0-t) [1, 6] was 1370 ng·h/mL, the Cmax [1, 6] was 1220 ng/mL and the Tmax [1, 6] was 0.02 h. The Vd ([1]; both sexes, rat, plasma, SD rats, single intravenous injection of 5.0 mg/kg, n=6, read-out: Vz) was 15.2 L/kg, the “Body weights of the experimental animals” value [2, 7] was “not significantly reduced” and the “abnormality in the experimental animals” value [2, 7] was “no significant abnormality was observed”. The “Tumor Weight (x ± S.D.)” value [2, 8] was 0.045 ± 0.074 g, the “Tumor Inhibitor Rate” value [2, 8] was 91.7% and the “Relative Tumor Volume (x ± S.D.)” value [2, 8] was 0.36 ± 0.45. For the same compound, the T/C [2, 8] was 5.0%, the “Tumor Volume (x ± S.D.)” value [2, 8] was 57.3 ± 77.6*** mm^3 and the “Tumor Weight (x ± S.D.)” value [2, 9] was 0.026 ± 0.026 g. The “Tumor Inhibitor Rate” value [2, 9] was 95.2%, the “Relative Tumor Volume (x ± S.D.)” value [2, 9] was 0.13 ± 0.10 and the T/C [2, 9] was 1.8%. The “Tumor Volume (x ± S.D.)” value [2, 9] was 18.4 ± 11.6*** mm^3, the “Tumor Weight (x ± S.D.)” value [2, 10] was 0.014 ± 0.013 g and the “Tumor Inhibitor Rate” value [2, 10] was 97.4%. For the same compound, the “Relative Tumor Volume (x ± S.D.)” value [2, 10] was 0.13 ± 0.04, the T/C [2, 10] was 1.8% and the “Tumor Volume (x ± S.D.)” value [2, 10] was 20.9 ± 8.6*** mm^3.
